Laboratory results published in patent US20210268070A1, “Use of Immunomodulators to Control Infection and Stimulate Healing in Normal and Diabetic Wounds” (priority 2018, published 2021).

Legend:
P. aeruginosa PA103 [1] = test: Wound model of infection with PA103 in normal (C57BL) mice; format: in vivo
Description: (§1) The implant model of infection in C57B mice was used for 10^6 PA103 (FIG. 2A) or 10^6 USA300 MRSA (FIG. 2C). The wound model of infection was used for 10^6 PA103 in C57BL mice (FIG. 2B) or diabetic db/db mice (FIG. 2D). Infection was carried out at the time of surgery by adding bacteria directly to the surgical sites. Immunomodulators, namely, LPS (10 ng or 100 ng), fMLP (10 ng or 100 ng), CCL3 (1 μg) were added topically at the surgical sites at the time of surgery & infection. GM-CSF (10 μg/kg), tobramycin (Tob at 3.5 mg/kg), and vancomycin (40 mg/kg) were added systemically by i.p. injection 1 h before surgical implantation and infection. Infection levels were determined 24 h following infection (N>4 animals/group; NS=not significant, * p<0.01, ** p<0.001, ***p<0.0001 One-way ANOVA).
(§2) (15A) C57BL/6 mice received 40 mg/kg prophylaxis (Sys) vancomycin (Vanc) or 3.5 mg/kg tobramycin (Tobra) by i.p. injection. (15A) 1 h after antibiotic administration, 106 CFU of USA300 was added to implant after insertion into facia (Implant Model). (15B) 1 h after antibiotic administration, 10^6CFU of USA300 or 106CFU PA103 (Pa) were added full-thickness wounds in of C57BL/6 (Wound Model). Infection levels at implant surgical site (Tissue & Implant) or a distant site (Spleen), or wound tissues were assessed 24 h following infection. (N>4 animals/group, * p<0.01, ***p<0.0001, One-way ANOVA).
(§3) We assessed these immunomodulators for their ability to control wound and/or implant SS's in normal (C57BL/6) or diabetic (db/db) mice. We acknowledge that diabetic individuals are not as immunocompromised as other immunocompromised patient groups. […] All immunomodulators were added locally at the surgical sites at the time of infection, except GM-CSF (10 μg/kg) which was administered systemically by i.p. injection 1 h prior to surgery per its FDA-approved route of delivery. […] CCL3 and GM-CSF are also tested using the implant model of infection. Here, we tested CCL3 and GM-CSF in the wound model of infection in C57B mice.
Implant surgery and wound surgery and surgical site infection are performed according to the following method. On the day of surgery, all mice are anesthetized by an intraperitoneal injection of a ketamine/xylazine mixture (90 mg/kg ketamine+5 mg/kg xylazine for mice). The back of the animals is shaved using an electric shave and scrubbed with alcohol swabs 3 times, a topical antiseptic solution (Hibiclens; chlorhexidine gluconate) is applied to the skin. The surgical procedures are performed with sterile instruments, sterile surgical gloves, and aseptic techniques as follows. For wound surgical procedure, a sterile biopsy punch (5-7 mm diameter) is used to punch through the full thickness of the back skin below the shoulder blades. Four 5-7 mm skin wounds are made on the back of each mouse. Wounds placed in this area cannot be reached by the animals and therefore are protected from self-licking. For implant surgery, a 4-mm long lateral skin incision is made on the upper back, and the skin is retracted. The space above the muscle is opened using blunt dissection with fine forceps, to create a rostral fascia indentation. Then, immunomodulators at indicated concentrations (in a 20 μL volume) or PBS control are injected into the fascia indentation.

P. aeruginosa PA103 [2] = test: Implant model of infection with PA103; format: in vivo; details: prophylaxis tobramycin 3.5 mg/kg i.p. 1 h before implantation and infection, FIG. 2A
Description: as §1, §3
(§4) Implant surgery and wound surgery and surgical site infection are performed according to the following method. On the day of surgery, all mice are anesthetized by an intraperitoneal injection of a ketamine/xylazine mixture (90 mg/kg ketamine+5 mg/kg xylazine for mice). The back of the animals is shaved using an electric shave and scrubbed with alcohol swabs 3 times, a topical antiseptic solution (Hibiclens; chlorhexidine gluconate) is applied to the skin. The surgical procedures are performed with sterile instruments, sterile surgical gloves, and aseptic techniques as follows. […]

USA300 MRSA = test: Implant model of infection with USA300 MRSA; format: in vivo
Description: as §1, §2, §3
as §4, with “follows. For wound surgical procedure, a sterile biopsy punch (5-7 mm diameter) is used to punch through the full thickness of the back skin below the shoulder blades.” for “follows.”

leukocytes = test: Leukocyte migration (H&E staining) and activation (MPO ELISA) in normal wound; format: in vivo, C57B mice; details: compared to PBS, FIGS. 10A-10D
Source text: FIGS. 10A-10D illustrate that immunomodulatory treatment enhances leukocyte migration and neutrophil activation in a normal wound. (10A, 10B—CCL3, 10C—LPS, fMLF, 10D—GM-CSF), N=4; Significance determined as compared to PBS *<0.05, **p<0.01, ***p<0.001.
We next examined the impact of CCL3 topical treatment on leukocyte migration by H&E staining, and on leukocyte activation by myeloperoxidase (MPO) measurements by ELISA. (MPO is primarily used as a marker for neutrophil activation but it can also be expressed to lesser extent in macrophages).

MRSA = test: Normal wound model of MRSA infection; format: in vivo; details: FIG. 6B
Description: as §3
as §4, with “follows. For wound surgical procedure, a sterile biopsy punch (5-7 mm diameter) is used to punch through the full thickness of the back skin below the shoulder blades.” for “follows.”

NC[C@H]1O[C@H](O[C@H]2[C@H](O)[C@@H](O[C@H]3O[C@H](CO)[C@@H](O)[C@H](N)[C@H]3O)[C@H](N)C[C@@H]2N)[C@H](N)C[C@@H]1O [tobramycin]
infection levels in wound tissues after prophylaxis antibiotic (P. aeruginosa PA103 [1]; C57BL/6 mice, 3.5 mg/kg i.p. 1 h before 10^6 CFU PA103, 24 h following infection, FIG. 15B): effective | bacterial loads on implants as compared to implants treated with immunomodulators (P. aeruginosa PA103 [2]): significantly higher

CN[C@H](CC(C)C)C(=O)N[C@H]1C(=O)N[C@@H](CC(N)=O)C(=O)N[C@H]2C(=O)N[C@H]3C(=O)N[C@H](C(=O)N[C@H](C(=O)O)c4cc(O)cc(O)c4-c4cc3ccc4O)[C@H](O)c3ccc(c(Cl)c3)Oc3cc2cc(c3O[C@@H]2O[C@H](CO)[C@@H](O)[C@H](O)[C@H]2O[C@H]2C[C@](C)(N)[C@H](O)[C@H](C)O2)Oc2ccc(cc2Cl)[C@H]1O [vancomycin]
infection levels at implant surgical site (Tissue & Implant) or a distant site (Spleen) (USA300 MRSA; C57BL/6 mice, prophylaxis antibiotic i.p. 1 h before 10^6 CFU USA300, 24 h following infection, FIG. 15A): effective | bacterial loads on implants as compared to implants treated with immunomodulators (USA300 MRSA; prophylaxis vancomycin 40 mg/kg i.p., FIG. 15A & 2C): significantly higher

Granulocyte-macrophage colony-stimulating factor [GM-CSF]
leukocyte migration and neutrophil activation in a normal wound (leukocytes): enhances | PA103 infection in wounds as compared to PBS-treated wounds (P. aeruginosa PA103 [1]; C57BL mice, 10^6 PA103, systemic 10 μg/kg i.p. 1 h prior to surgery, 24 h, FIG. 2B): significantly reduce | reduction of PA103 infection in wounds, compared with CCL3 or tobramycin (P. aeruginosa PA103 [1]; systemic GM-CSF 10 μg/kg i.p., FIG. 2B): not as effective

IL-1β: pro-inflammatory cytokine interleukin-1 (SEQ ID NO: 11, precursor)
controlling MRSA infection in normal wound model (MRSA): effective | infection control against P. aeruginosa PA103 in normal wounds (P. aeruginosa PA103 [1]; C57B mice, immunomodulator added locally at time of infection, compared to PBS, FIGS. 3A, 4A, 4B, 6A): effective
